{"source": "patent US11701360B2", "about": "“Composition for inducing differentiation and protection of neural stem cells and method for inducing neuro-regeneration using the same composition” (GENUV Inc., priority 2017, dated 2023)", "key": {"[1]": {"system": "mouse adult neural stem cells", "details": "for cell protection and differentiation of NSC under amyloid-beta cytotoxicity: 10 μM amyloid-beta, second day of culture; for concentration at which differentiation-inducing effect starts: no amyloid-beta, day 2 of culture", "description": "NSC were isolated from the subventricular zone of week 8 mouse brain, treated with 20 ng/ml human basic fibroblast growth factor (bFGF) and 20 ng/ml human epidermal growth factor (EGF) in an IPM medium, and cultured as a suspension in 24-well plates for 7 days.\nTwo days before the isolation of single cells, 6-well plates were prepared by treating the wells with 10 μg/ml poly-L-ornithine solution and incubating overnight at room temperature for coating. The next day, poly-L-ornithine solution was removed and the plates were washed 3 times with sterilized triple distilled water. […] The culture solution used is N2 culture medium (supplemented with 20 ng/ml bFGF and 20 ng/ml EGF). Right before seeding, the coating solution was suctioned out, and the single cells were uniformly seeded into the culture plate before the plate dried up. Cells were allowed to attach to the plates for about one minute, and after checking that cells were sufficiently attached, an additional 1.5 ml of culture medium (N2 culture medium with 20 ng/ml bFGF and 20 ng/ml EGF) was added to the cells and cultured in a 37° C. incubator for 24 hours.\nWells not treated with amyloid-beta were left to use as negative controls.\nGibco's (Waltham, Mass.) human Aβ (1-42) was purchased to use for the amyloid-beta (Aβ), and the following process was followed to create oligomers. […] Then, it was dried for 10 minutes in a speed Vac, after which DMSO (Sigma, cat #.D2650) was added to bring the concentration to 5 mM and then lightly vortexed at room temperature for 10 minutes. […] The solution was incubated at 4° C. for 24 hours and then added into the cultured cells.\nThe NCSs were cultured with the daily addition of EGF, bFGF, amyloid-beta, and test materials for 4 days."}, "[2]": {"system": "mouse embryonic neural stem cells", "experiment": "Immunocytochemistry analysis (Tuj1/DAPI staining)", "format": "cell-based", "details": "4 days", "description": "Tuj1 (Neuron specific class III beta-tubulin) is a neuron specific marker protein, which was conjugated to rhodamine to show fluorescent red, while DAPI binds to the cell DNA and stains the cell nuclei fluorescent blue. […] The medium was removed and the cells were washed with PBS. After fixing with 10% formaldehyde (Sigma cat #. HT501128) at room temperature for 10 minutes, they were washed again with PBS. They were permeabilized with 0.2% Triton X-100 (Sigma, cat #. 93443) at room temperature for 15 minutes, washed with PBS, and incubated with 10% BSA (Sigma, cat #. A2153)+1% normal goat serum (Vector lab, Burlingame, Calif., cat #. S1000) at room temperature for 1 hour. […] The solution was removed, washed with PBS, and incubated at room temperature for 1 hour with the secondary antibody (rhodamine-conjugated antibody) diluted in 1% BSA+1% normal goat serum at a ratio of 1:200. Then, the cells were washed with PBS, incubated with 5 μg/ml DAPI (Sigma, cat #. D9542) for 5 minutes, washed with PBS again, and mounted on a slide glass for analysis with a fluorescent microscope."}, "[3]": {"details": "cited from earlier work"}, "[4]": {"target": "MEK1 (Homo sapiens (Human), UniProt Q02750)", "sequence (Q02750 whole entry, species assumed)": "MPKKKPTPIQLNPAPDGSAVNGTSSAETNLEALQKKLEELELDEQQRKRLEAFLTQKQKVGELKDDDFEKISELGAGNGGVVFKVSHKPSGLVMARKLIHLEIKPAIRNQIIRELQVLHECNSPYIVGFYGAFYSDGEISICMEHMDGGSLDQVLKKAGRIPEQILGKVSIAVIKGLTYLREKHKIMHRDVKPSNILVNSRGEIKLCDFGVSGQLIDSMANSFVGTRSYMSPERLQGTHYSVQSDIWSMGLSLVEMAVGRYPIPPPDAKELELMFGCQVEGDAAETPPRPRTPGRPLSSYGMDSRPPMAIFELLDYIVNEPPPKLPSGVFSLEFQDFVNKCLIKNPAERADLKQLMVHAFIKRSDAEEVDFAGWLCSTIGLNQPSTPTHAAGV", "details": "cited from earlier work"}, "[5]": {"system": "mouse embryonic neural stem cells", "experiment": "Morphology analysis (phase-contrast) of NSC differentiation in mouse embryonic neural stem cells", "format": "cell-based", "details": "1.0 μM and 10 μM; day 2 of culture", "description": "Neural stem cells were isolated from the brain of a day 14.5 mouse embryo, treated with 10 ng/ml human basic fibroblast growth factor (bFGF) (Peprotech, Princeton, NG, cat #0.100-18B) and 20 ng/ml human epidermal growth factor (EGF) (Peprotech, cat #. AF-100-15) in a N2 culture medium, and cultured in suspension in a 25 cm2 flask (Nunc, Pittsburgh, Pa.) for 4 days. Formation of neurospheres was observed after 2 days.\nIn order to isolate single cells, 6-well plates were prepared the day before by treating the wells with 15 μg/ml poly-L-ornithine (Sigma, St. Louis, Mo., cat #.P2533) solution and incubating overnight at 37° C. for coating. The day of the single cell isolation, poly-L-ornithine solution was removed, the plates were washed with PBS three times, and 10 μg/ml fibronectin (Gibco, Waltham, Mass., cat #. 33016015) solution was added and incubated at 37° C. for 2 hours for coating.\nVarious concentrations of the compound of [Formula 1]\nFIG. 10b is the analysis of Tuj1 mRNA expression in the cells of each group."}}, "note": "“Also recorded” adds a separate entry of the source. Read-outs that look alike come from different tables or passages of the source."}
{"molecule": "COc1cc(F)c(F)c(Nc2ccc(I)cc2F)c1NS(=O)(=O)C1(C[C@H](O)CO)CC1", "note": "[refametinib]", "values": [{"measurement": "cell protection and differentiation of NSC under amyloid-beta cytotoxicity", "setting": "[1]; compound 1 μM", "value": "provided cell protection and induced the differentiation of NSC"}]}
{"molecule": "O=C(NC[C@H](O)CO)c1ccncc1Nc1ccc(I)cc1F", "note": "[AS703026, pimasertib]", "values": [{"measurement": "neuron differentiation (Tuj1 staining)", "setting": "[2]; 0.1 μM", "value": "no differentiation was observed"}, {"measurement": "neuron differentiation (Tuj1 staining)", "setting": "[2]; 1.0 μM", "value": "neuron differentiation occurs at this concentration, albeit only to a marginal extent"}, {"measurement": "cell protection and differentiation of NSC under amyloid-beta cytotoxicity", "setting": "[1]; compound 10 μM", "value": "provided cell protection and induced the differentiation of NSC"}, {"measurement": "cell toxicity", "setting": "[1]; trametinib 10 nM and 100 nM, AS703026 10 μM, 4 days", "value": "did not elicit cell toxicity"}, {"measurement": "expression of phosphorylated ERK in the mouse brain", "setting": "[3]", "value": "decrease the expression of phosphorylated ERK"}, {"measurement": "crossing of the blood brain barrier", "setting": "[3]; mouse", "value": "effectively cross the BBB"}]}
{"molecule": "O=C(NOCC(O)CO)c1cc(Br)c(F)c(F)c1Nc1ccc(I)cc1F", "note": "(stereo not drawn) [PD318088]", "values": [{"measurement": "cell protection and differentiation of NSC under amyloid-beta cytotoxicity", "setting": "[1]; compound 1 μM", "value": "provided cell protection and induced the differentiation of NSC"}]}
{"molecule": "O=C(c1ccc(F)c(F)c1Nc1ccc(I)cc1F)N1CC(O)([C@@H]2CCCCN2)C1", "note": "[cobimetinib]", "values": [{"measurement": "selectivity toward MEK1 compared with MEK2", "setting": "[4]", "value": "≥ 100", "unit": "×"}, {"measurement": "differentiation of adult NSC (morphology)", "setting": "[1]; 10 μM, regardless of whether amyloid-beta was added, second day", "value": "did not induce the differentiation of adult NSC; also recorded: does not induce the differentiation of mouse adult neural stem cells"}]}
{"molecule": "N#CC(=C(/N)Sc1ccccc1N)/C(C#N)=C(\\N)Sc1ccccc1N", "note": "[U0126]", "values": [{"measurement": "cell proliferation", "setting": "[1]; 0.1 μM and 1.0 μM, day 2", "value": "inhibition of cell proliferation"}, {"measurement": "differentiation-inducing effect (morphology)", "setting": "[1]; 2.5 μM, day 2", "value": "did not show any clear differentiation-inducing effect"}, {"measurement": "cell cytotoxicity", "setting": "[1]; 10 μM, day 2", "value": "cell cytotoxicity"}, {"measurement": "NSC differentiation-inducing effect (morphology)", "setting": "[1]; all concentrations tested, day 2", "value": "failed to show any NSC differentiation-inducing effect"}]}
{"molecule": "CNS(=O)(=O)Nc1nccc(Cc2c(C)c3ccc(Oc4ncccn4)cc3oc2=O)c1F", "note": "[RO5126766]", "values": [{"measurement": "concentration at which differentiation-inducing effect starts", "setting": "[1]", "value": 1.0, "unit": "µM"}]}
{"molecule": "O=C(NOC[C@H](O)CO)c1ccc(F)c(F)c1Nc1ccc(I)cc1F", "note": "[PD0325901]", "values": [{"measurement": "differentiation-inducing effect (morphology)", "setting": "[1]; 0.1 μM to 10 μM, day 2", "value": "excellent inducing effect"}, {"measurement": "concentration at which differentiation-inducing effect starts", "setting": "[1]", "value": 0.1, "unit": "µM"}]}
{"molecule": "Cc1cc(C(=O)NOCCO)c(Nc2ccc(I)cc2F)n(C)c1=O", "note": "[AZD8330]", "values": [{"measurement": "cell protection and differentiation of NSC under amyloid-beta cytotoxicity", "setting": "[1]; compound 1 μM", "value": "provided cell protection and induced the differentiation of NSC"}]}
{"molecule": "CC12CC3CC(C)(C1)CC(N)(C3)C2", "note": "[memantine]", "values": [{"measurement": "cell death of neural stem cells", "setting": "[1]; 5 μM and 10 μM, 4 days", "value": "death of neural stem cells"}, {"measurement": "differentiation of NSC into neurons (morphology)", "setting": "[1]; 5 μM and 10 μM, 4 days", "value": "not observed"}]}
{"molecule": "O=C(NOCC1CC1)c1ccc(F)c(F)c1Nc1ccc(I)cc1Cl", "note": "[PD184352]", "values": [{"measurement": "cell death", "setting": "[5]", "value": "all the cells died"}]}
{"molecule": "BI847325", "values": [{"measurement": "cell proliferation", "setting": "[1]; 1.0 nM and 10 nM, day 2", "value": "somewhat inhibited"}, {"measurement": "differentiation-inducing effect (morphology)", "setting": "[1]; 1.0 nM and 10 nM, day 2", "value": "not observed"}, {"measurement": "differentiation-inducing effect (morphology)", "setting": "[1]; 0.1 μM, day 2", "value": "only a weak differentiation-inducing effect"}]}
